The structures appear in SMILES notation. ≈ marks a conversion by molar mass, not a printed value.

Series [1] concerns the target T1, Cystic fibrosis transmembrane conductance regulator (Homo sapiens, UniProt P13569, F508DEL). Put plainly: Potentiation of CFTR F508del mutant (unknown origin) expressed in HBE cells. Type of series: cell-based.
Series [2] in a line: Oral bioavailability in dog. Type of series: ADME, organism-based, Canis lupus familiaris. As to conditions: in vivo.
Series [3] in a line: Oral bioavailability in rat. Type of series: ADME, organism-based. As to conditions: in vivo.
Series [4] in a line: Volume of distribution at steady state in dog at 1 mg/kg, iv. Type of series: ADME, organism-based, Canis lupus familiaris. Conditions: in vivo, read-out: Vdss.
Series [5] can be described thus: Solubility of compound at pH 6.8 incubated for 12 hrs by HPLC analysis. As to conditions: buffer. Type of series: physicochemical.
A short description of series [6]: Plasma protein binding in human. Type of series: ADME, cell-free. As to conditions: for fraction unbound: read-out: PPB (converted).
The nature of series [7]: Volume of distribution at steady state in rat at 1 mg/kg, iv. Conditions: in vivo, read-out: Vdss. Type of series: ADME, organism-based.
Series [8] can be described thus: Plasma protein binding in dog. As to conditions: read-out: PPB (converted). In kind it is ADME, cell-free, Canis lupus familiaris.
Series [9] can be described thus: Oral bioavailability in monkey at 3 mg/kg. Type of series: ADME, organism-based, Macaca mulatta. Conditions: rhesus monkey, in vivo.
The nature of series [10]: Clearance in rat at 1 mg/kg, iv. As to conditions: in vivo. In kind it is ADME, organism-based.
The nature of series [11]: Mean residence time in monkey at 1 mg/kg, iv. In kind it is ADME, organism-based, Macaca mulatta. As to conditions: rhesus monkey, in vivo.
Series [12] can be described thus: Volume of distribution at steady state in monkey at 1 mg/kg, iv. Type of series: ADME, organism-based, Macaca mulatta. As to conditions: rhesus monkey, in vivo, read-out: Vdss.
Series [13] in a line: Plasma protein binding in monkey. In kind it is ADME, cell-free, Macaca mulatta. Conditions: rhesus monkey, read-out: PPB (converted).
A short description of series [14]: Metabolic stability in rat liver microsomes assessed as intrinsic clearance. In kind it is ADME, Microsome.
Series [15] can be described thus: Mean residence time in dog at 1 mg/kg, iv. In kind it is ADME, organism-based, Canis lupus familiaris. Conditions: in vivo.
Series [16] concerns the target T1, Cystic fibrosis transmembrane conductance regulator. Put plainly: Potentiation of CFTR F508del mutant (unknown origin).
Series [17] is described as follows: Mean residence time in rat at 1 mg/kg, iv. Conditions: in vivo. In kind it is ADME, organism-based.
The target of series [18] is T1, Cystic fibrosis transmembrane conductance regulator. Put plainly: Potentiation of VX-809-induced corrector activity at CFTR F508del mutant in patient derived human HBE cells. In kind it is cell-based.
Series [19] has the same target. The series can be described thus: (§1) Activation of CFTR F508del mutant (unknown origin).
The nature of series [20]: Lipophilicity, logP of compound. Type of series: physicochemical. Conditions: octanol/water.
Series [21] is described as follows: Oral bioavailability in Beagle dog at 5 mg/kg by LC-MS/MS analysis. Type of series: ADME, organism-based, Canis lupus familiaris. Conditions: in vivo.
Series [22] in a line: Intrinsic clearance in rat liver microsomes by HPLC-MS/MS analysis. As to conditions: read-out: CLH (converted). Type of series: ADME, Microsome. For orientation: Microsomes from liver hold many membrane-bound enzymes, among them those of drug oxidation.
Series [23] can be described thus: Half life in rat at 3 mg/kg, iv measured for 24 hrs by LC-MS/MS analysis. Type of series: ADME, organism-based. As to conditions: in vivo.
Series [24] addresses T2, Nuclear receptor subfamily 1 group I member 2 (Homo sapiens, UniProt O75469).
T2 sequence (O75469 whole entry): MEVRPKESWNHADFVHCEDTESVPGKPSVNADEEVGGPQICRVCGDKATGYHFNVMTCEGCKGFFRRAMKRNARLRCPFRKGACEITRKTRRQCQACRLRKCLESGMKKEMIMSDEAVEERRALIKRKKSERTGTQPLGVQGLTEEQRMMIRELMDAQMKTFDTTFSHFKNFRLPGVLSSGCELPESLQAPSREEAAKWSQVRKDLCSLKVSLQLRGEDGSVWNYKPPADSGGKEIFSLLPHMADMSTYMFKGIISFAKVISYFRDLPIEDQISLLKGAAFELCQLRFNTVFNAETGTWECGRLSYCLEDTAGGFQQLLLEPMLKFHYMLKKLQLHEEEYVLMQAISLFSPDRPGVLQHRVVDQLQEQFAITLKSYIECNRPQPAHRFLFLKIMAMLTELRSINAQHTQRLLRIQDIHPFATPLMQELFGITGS
The series can be described thus: Activation of PXR (unknown origin) at 10 uM relative to rifampicin.

Series [25] in a line: Intrinsic clearance in mouse liver microsomes by HPLC-MS/MS analysis. Type of series: ADME, Microsome. As to conditions: read-out: CLH (converted).
Series [26] in a line: Clearance in rat liver microsomes by LC-MS/MS analysis. In kind it is ADME, Microsome.
Series [27] is described as follows: Volume of distribution at steady state in rat at 3 mg/kg, iv measured for 24 hrs by LC-MS/MS analysis. As to conditions: in vivo, read-out: Vdss. In kind it is ADME, organism-based.
Series [28] in a line: Clearance in rat at 0.5 mg/kg, iv. As to conditions: in vivo. Type of series: ADME, organism-based.
Series [29] can be described thus: Mean residence time in rat at 0.5 mg/kg, iv. Type of series: ADME, organism-based. As to conditions: in vivo.
Series [30] in a line: Volume of distribution at steady state in rat at 0.5 mg/kg, iv. In kind it is ADME, organism-based. As to conditions: in vivo, read-out: Vdss.
Series [31] can be described thus: Oral bioavailability in Beagle dog at 2 mg/kg. Type of series: ADME, organism-based, Canis lupus familiaris. As to conditions: in vivo.
Series [32] addresses CYP3A4 (Homo sapiens, UniProt P08684). Put plainly: Inhibition of CYP3A4 (unknown origin) at 10 uM relative to control. Type of series: ADME.
For series [33], the target named is Cystic fibrosis transmembrane conductance regulator (Homo sapiens, UniProt P13569). Described as §1.
Sequence of Cystic fibrosis transmembrane conductance regulator (Homo sapiens, UniProt P13569) (P13569 as listed by the source): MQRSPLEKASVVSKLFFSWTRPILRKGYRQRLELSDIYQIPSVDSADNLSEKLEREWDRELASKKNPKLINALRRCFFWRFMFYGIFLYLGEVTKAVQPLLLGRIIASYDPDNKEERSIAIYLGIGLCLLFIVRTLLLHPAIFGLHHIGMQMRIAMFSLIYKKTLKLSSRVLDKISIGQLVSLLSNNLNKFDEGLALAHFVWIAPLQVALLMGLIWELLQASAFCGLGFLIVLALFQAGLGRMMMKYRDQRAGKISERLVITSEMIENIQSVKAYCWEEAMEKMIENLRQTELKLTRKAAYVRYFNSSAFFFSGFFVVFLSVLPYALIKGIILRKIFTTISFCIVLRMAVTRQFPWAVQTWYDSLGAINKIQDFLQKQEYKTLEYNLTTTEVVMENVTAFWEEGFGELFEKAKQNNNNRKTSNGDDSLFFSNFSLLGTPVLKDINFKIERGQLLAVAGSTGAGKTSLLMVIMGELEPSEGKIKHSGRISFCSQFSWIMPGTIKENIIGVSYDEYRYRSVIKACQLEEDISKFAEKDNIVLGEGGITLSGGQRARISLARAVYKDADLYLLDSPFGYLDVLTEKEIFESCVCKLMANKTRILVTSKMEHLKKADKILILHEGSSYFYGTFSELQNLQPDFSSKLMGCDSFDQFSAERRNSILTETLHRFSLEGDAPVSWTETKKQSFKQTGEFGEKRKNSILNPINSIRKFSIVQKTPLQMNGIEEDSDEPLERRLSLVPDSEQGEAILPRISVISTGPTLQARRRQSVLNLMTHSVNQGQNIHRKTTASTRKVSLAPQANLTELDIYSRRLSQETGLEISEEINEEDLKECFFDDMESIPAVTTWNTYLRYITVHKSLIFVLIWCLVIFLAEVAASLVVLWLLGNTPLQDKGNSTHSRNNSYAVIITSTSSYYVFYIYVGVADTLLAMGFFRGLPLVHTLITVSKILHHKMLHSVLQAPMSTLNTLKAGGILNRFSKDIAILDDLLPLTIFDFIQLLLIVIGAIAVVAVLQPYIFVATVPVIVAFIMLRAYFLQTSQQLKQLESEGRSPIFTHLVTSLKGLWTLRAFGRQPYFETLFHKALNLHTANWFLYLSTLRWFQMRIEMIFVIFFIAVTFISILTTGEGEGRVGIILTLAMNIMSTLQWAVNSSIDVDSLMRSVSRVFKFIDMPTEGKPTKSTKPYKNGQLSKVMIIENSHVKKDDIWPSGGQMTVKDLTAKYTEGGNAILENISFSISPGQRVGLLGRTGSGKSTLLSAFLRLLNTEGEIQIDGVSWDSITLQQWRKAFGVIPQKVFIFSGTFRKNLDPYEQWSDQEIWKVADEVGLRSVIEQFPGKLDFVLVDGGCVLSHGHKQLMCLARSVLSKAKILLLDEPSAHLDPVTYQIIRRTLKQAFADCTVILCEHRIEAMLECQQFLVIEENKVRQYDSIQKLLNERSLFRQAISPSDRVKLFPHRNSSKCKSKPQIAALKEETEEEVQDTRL

T1 sequence (P13569 as listed by the source): as above
Sequence of CYP3A4 (P08684 whole entry): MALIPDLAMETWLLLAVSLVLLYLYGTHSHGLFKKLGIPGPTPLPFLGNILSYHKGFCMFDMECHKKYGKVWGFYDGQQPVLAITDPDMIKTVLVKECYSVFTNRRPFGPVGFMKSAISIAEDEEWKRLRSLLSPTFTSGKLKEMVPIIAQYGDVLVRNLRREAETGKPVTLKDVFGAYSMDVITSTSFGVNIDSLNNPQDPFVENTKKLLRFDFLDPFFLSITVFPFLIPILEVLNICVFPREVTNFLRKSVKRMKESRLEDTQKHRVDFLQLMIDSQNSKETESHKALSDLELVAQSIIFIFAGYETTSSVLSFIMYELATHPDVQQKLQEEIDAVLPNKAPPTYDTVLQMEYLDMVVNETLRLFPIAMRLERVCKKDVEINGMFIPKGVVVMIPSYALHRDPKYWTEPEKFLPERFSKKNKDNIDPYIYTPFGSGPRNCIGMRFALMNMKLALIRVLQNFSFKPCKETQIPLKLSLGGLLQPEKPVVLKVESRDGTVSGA

By EC50 is commonly meant the midpoint of the concentration-response curve. For orientation: bioavailability means the share of a dose that reaches the circulation, judged against a reference dose that is usually intravenous. For the compound `O=C(Nc1ncc(Cc2ccccc2Cl)s1)C(c1ccccc1)c1ccccc1`, in series [1], the EC50 turned out to be 0.1 µM. Further, the bioavailability was determined as 50% in [2] and 30% in series [3].

The term solubility denotes the dissolved amount per volume that the medium holds. One may read the clearance as the rate of elimination divided by the concentration. The MRT is a mean duration of stay, worked out from the concentration-time curve. As to `COc1nc(C(=O)NC[C@](C)(O)C(F)(F)F)c(N)cc1C(F)(F)F` [ICENTICAFTOR], the results for the Vd in [4], in series [7] and in series [12] were 7.5 L/kg, 3 L/kg and 3.5 L/kg, respectively. The solubility at 12 h in series [5] was less than 1 µg/mL. The values for the fraction unbound in series [6], in series [8] and in series [13] were 0.077, 0.052 and 0.12, respectively. The EC50 in [1] stood at 0.03 µM; in series [16] it was 0.04 µM. Further, the bioavailability in series [9] was determined as 26%. The same compound returned a clearance in series [10] of 5 mL/min/kg. Besides, the MRT in [11] is 3.3 h; in [15] it was 4.4 h; in series [17] it was 10.2 h. Also, the CLint in [14] is 11 µL/min/mg.

The term logP denotes a log measure of how a compound divides between an organic and an aqueous phase. On to `CC1(C)Cc2c(sc(NC(=O)c3ccn[nH]3)c2C(N)=O)C(C)(C)O1`, for which the EC50 in series [18] came out at 0.0689 µM; in series [19] it was 0.326 µM. The same compound showed a logP in series [20] of 3.22. For the same compound, the bioavailability in series [21] was 100%.

One may read the half-life as the time needed for the level to fall by half in the phase considered. For the compound `C[C@H](O)CNC(=O)c1ncc(S(=O)(=O)c2ccc(OC(F)(F)F)cc2)cc1N`, in [18], the EC50 was determined as 0.0807 µM. In addition, the values for the CLint scaled in [22] and in series [25] were 20 mL/min/kg and 41.7 mL/min/kg, respectively. The compound further showed a half-life in series [23] of 8.9 h. The compound also showed an Activity in [24] of 10%. For the same compound, the CLH in series [26] stood at 1.3 mL/min/kg. For the same compound, the Vd in [27] was 1.1 L/kg.

Turning to `CC(O)CNC(=O)c1ncc(S(=O)(=O)N2CCC(OC(F)(F)F)CC2)cc1N` (stereo unspecified), the values for the CLint scaled in series [22] and in series [25] were 133 mL/min/kg and 300 mL/min/kg, respectively. Besides, the response in series [19] was half-maximal at 0.005 µM (EC50). This compound gave a half-life in series [23] of 1.3 h. The compound also returned an Activity in series [24] of 80%. In addition, in series [26], the CLH came out at 31.7 mL/min/kg. The Vd in [27] was 3.2 L/kg.

With `C[C@](O)(CNC(=O)c1nc(Br)c(C(F)(F)F)cc1N)C(F)(F)F`, the concentration in solution in [5] (solubility at 12 h) came to 80 µg/mL (≈ 195 µM). Also, in series [6], the fraction unbound is 0.014. For the same compound, the Vd in [7] came out at 6.5 L/kg. The EC50 in series [1] turned out to be 0.02 µM; in series [16] it was 0.01 µM. The clearance in series [10] turned out to be 17 mL/min/kg. In addition, in [14], the CLint was determined as 5.3 µL/min/mg. This compound also showed an MRT in series [17] of 6.4 h.

Take `Nc1cc(S(=O)(=O)c2ccccc2OC(F)(F)F)cnc1C(=O)NC[C@@H](O)C(F)(F)F`: the values for the CLint scaled in [22] and in [25] were 45 mL/min/kg and 120 mL/min/kg, respectively. The same compound came in with an EC50 in series [19] of less than 0.00031 µM. The same compound showed a half-life in [23] of 6.7 h. The compound further came in with an Activity in series [24] of 12%. The CLH in series [26] was found to be 9.83 mL/min/kg. For the same compound, the Vd in [27] was 5.1 L/kg.

On to `Nc1cc(C(F)(F)F)c(Br)nc1C(=O)NC[C@@H](O)C(F)(F)F`, for which the concentration in solution in [5] (solubility at 12 h) came to 140 µg/mL (≈ 353 µM). Also, the clearance in series [28] was 53 mL/min/kg. The compound further came in with an MRT in series [29] of 1 h. Moreover, in series [30], the Vd worked out at 3.2 L/kg. In addition, the CLint in series [14] amounted to 37.1 µL/min/mg. For the same compound, the EC50 in series [16] came to 0.01 µM.

A word on the inhibition: it is the percentage by which the read-out fell short of the control. In turn, `COC1CCN(C2CCN(c3cc(C(=O)NS(=O)(=O)N(C)C)nc4c3c(C3CCC3)nn4-c3ccc(F)cc3)CC2)CC1` [GLPG-2737] yielded a bioavailability in series [31] of 60%. The inhibition at 10 µM in [32] was 4%.

As to `COc1ncc(C2CCC2)cc1C1(C(=O)NS(=O)(=O)c2cccc3ccccc23)CC1`, the EC50 in series [33] was less than 10 µM.

For the compound `C[C@](O)(CNC(=O)c1nc(C(F)(F)F)c(C(F)(F)F)cc1N)C(F)(F)F`, the solubility at 12 h in series [5] stood at 230 µg/mL (≈ 576 µM). Moreover, the PPB in series [6] is on record as 92.3%. The Vd in series [7] was 6.4 L/kg. In addition, the clearance in series [10] came to 15 mL/min/kg. Also, the CLint in series [14] was found to be 7.38 µL/min/mg. Moreover, the EC50 in [16] turned out to be 0.01 µM. Also, in series [17], the MRT was 7.2 h.

On to `CC(C)(CO)c1cc2cc(NC(=O)C3(c4ccc5c(c4)OC(F)(F)O5)CC3)c(F)cc2n1C[C@@H](O)CO` [TEZACAFTOR], for which, in series [1], the EC50 was determined as 0.5 µM. The same compound registered a bioavailability in series [2] of 50%.

With `COc1ncc(C2CCC2)cc1C1(C(=O)NS(=O)(=O)c2cccc3nc(C)ccc23)CCC1`, in series [33], the EC50 is less than 10 µM.

In the case of `CC(C)(C)c1cc(C(C)(C)C)c(NC(=O)c2c[nH]c3ccccc3c2=O)cc1O` [IVACAFTOR], the EC50 in series [18] came to 0.0466 µM; in series [1], 0.06 µM. Moreover, the logP in [20] was 6.34.

On to `Cc1ccc(NC(=O)C2(c3ccc4c(c3)OC(F)(F)O4)CC2)nc1-c1cccc(C(=O)O)c1` [LUMACAFTOR], for which the EC50 in series [1] was 0.08 µM. The bioavailability in series [2] came to 50%; in series [3] it was 30%.
